According to PubChem BioAssay (NCI):
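Protocol summary: plate cells (96-well), add compound at 5 concentrations, incubate 48 h, interpolate endpoints linearly. GI50 marks 50% less growth. TGI: concentration producing complete growth inhibition.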

Columns and labels:
Assay in all cases: DTP human tumour cell line panel, 48 h
A549 NSCLC = system: A549 NSCLC
OVCAR-8 ovarian = system: OVCAR-8 ovarian
COLO 205 colon = system: COLO 205 colon
NCI-H23 lung = system: NCI-H23 lung
IGROV1 ovarian = system: IGROV1 ovarian
RPMI-8226 leukemia = system: RPMI-8226 leukemia
KM12 colon = system: KM12 colon
HL-60(TB) leukemia = system: HL-60(TB) leukemia
BT-549 breast = system: BT-549 breast
SNB-19 CNS = system: SNB-19 CNS
SK-MEL-5 melanoma = system: SK-MEL-5 melanoma
CAKI-1 renal = system: CAKI-1 renal
MDA-MB-435 = system: MDA-MB-435
SK-MEL-2 melanoma = system: SK-MEL-2 melanoma
OVCAR-4 ovarian = system: OVCAR-4 ovarian
SF-295 CNS = system: SF-295 CNS
RXF 393 renal = system: RXF 393 renal
MOLT-4 leukemia = system: MOLT-4 leukemia
SR leukemia = system: SR leukemia
HOP-62 NSCLC = system: HOP-62 NSCLC
UACC-257 melanoma = system: UACC-257 melanoma
UACC-62 melanoma = system: UACC-62 melanoma
NCI/ADR-RES ovarian = system: NCI/ADR-RES ovarian
HT29 colon = system: HT29 colon
786-0 renal = system: 786-0 renal
M14 melanoma = system: M14 melanoma
ACHN renal = system: ACHN renal
MALME-3M melanoma = system: MALME-3M melanoma
K-562 leukemia = system: K-562 leukemia
EKVX NSCLC = system: EKVX NSCLC
LOX IMVI melanoma = system: LOX IMVI melanoma
HCC-2998 colon = system: HCC-2998 colon
SF-539 CNS = system: SF-539 CNS
HCT-116 colon = system: HCT-116 colon
SK-OV-3 ovarian = system: SK-OV-3 ovarian
OVCAR-5 ovarian = system: OVCAR-5 ovarian
U251 CNS = system: U251 CNS
SW-620 colon = system: SW-620 colon
DU-145 prostate = system: DU-145 prostate
MDA-MB-231 breast = system: MDA-MB-231 breast
HOP-92 NSCLC = system: HOP-92 NSCLC
SK-MEL-28 melanoma = system: SK-MEL-28 melanoma
MCF7 breast = system: MCF7 breast
HCT-15 colon = system: HCT-15 colon
T-47D breast = system: T-47D breast
SN12C renal = system: SN12C renal
NCI-H460 lung = system: NCI-H460 lung
NCI-H522 lung = system: NCI-H522 lung
PC-3 prostate = system: PC-3 prostate
OVCAR-3 ovarian = system: OVCAR-3 ovarian
A498 renal = system: A498 renal
SF-268 CNS = system: SF-268 CNS
NCI-H226 lung = system: NCI-H226 lung
CCRF-CEM leukemia = system: CCRF-CEM leukemia
SNB-75 CNS = system: SNB-75 CNS
UO-31 renal = system: UO-31 renal
HS 578T breast = system: HS 578T breast

CCN(Cc1ccc(OC)cc1)c1ccc(CO)c(Cl)c1
GI50 (A549 NSCLC): 2.62 µM
TGI (A549 NSCLC): 35.9 µM
GI50 (OVCAR-8 ovarian): 14 µM
TGI (OVCAR-8 ovarian): 52.4 µM
GI50 (COLO 205 colon): 0.451 µM
TGI (COLO 205 colon): 3.31 µM
GI50 (NCI-H23 lung): 13.7 µM
TGI (NCI-H23 lung): 60 µM
GI50 (IGROV1 ovarian): 0.114 µM
TGI (IGROV1 ovarian): 1.16 µM
GI50 (RPMI-8226 leukemia): 6.23 µM
TGI (RPMI-8226 leukemia): 46.1 µM
GI50 (KM12 colon): 18.3 µM
TGI (KM12 colon): 44.7 µM
GI50 (HL-60(TB) leukemia): 13.8 µM
TGI (HL-60(TB) leukemia): 59.9 µM
GI50 (BT-549 breast): 12.7 µM
TGI (BT-549 breast): 37.4 µM
GI50 (SNB-19 CNS): 26.8 µM
TGI (SNB-19 CNS): > 100 µM
GI50 (SK-MEL-5 melanoma): 2.66 µM
TGI (SK-MEL-5 melanoma): 18.6 µM
GI50 (CAKI-1 renal): 1.14 µM
TGI (CAKI-1 renal): > 36.3 µM
GI50 (MDA-MB-435): 16.7 µM
TGI (MDA-MB-435): 43.6 µM
GI50 (SK-MEL-2 melanoma): 3.79 µM
TGI (SK-MEL-2 melanoma): 20.2 µM
GI50 (OVCAR-4 ovarian): 0.369 µM
TGI (OVCAR-4 ovarian): 15.9 µM
GI50 (SF-295 CNS): 1.31 µM
TGI (SF-295 CNS): 31.5 µM
GI50 (RXF 393 renal): 7.35 µM
TGI (RXF 393 renal): 28.3 µM
GI50 (MOLT-4 leukemia): 21.6 µM
TGI (MOLT-4 leukemia): 59.7 µM
GI50 (SR leukemia): 24.7 µM
TGI (SR leukemia): > 72.5 µM
GI50 (HOP-62 NSCLC): 2.05 µM
TGI (HOP-62 NSCLC): 29.4 µM
GI50 (UACC-257 melanoma): 0.124 µM
TGI (UACC-257 melanoma): 0.312 µM
GI50 (UACC-62 melanoma): 0.0986 µM
TGI (UACC-62 melanoma): 0.686 µM
GI50 (NCI/ADR-RES ovarian): 15 µM
TGI (NCI/ADR-RES ovarian): 49.6 µM
GI50 (HT29 colon): 2.07 µM
TGI (HT29 colon): 17.3 µM
GI50 (786-0 renal): 10.6 µM
TGI (786-0 renal): 45.4 µM
GI50 (M14 melanoma): 16.1 µM
TGI (M14 melanoma): 58.3 µM
GI50 (ACHN renal): 19.3 µM
TGI (ACHN renal): > 81.5 µM
GI50 (MALME-3M melanoma): 17 µM
TGI (MALME-3M melanoma): 38.4 µM
GI50 (K-562 leukemia): 2.33 µM
TGI (K-562 leukemia): > 100 µM
GI50 (EKVX NSCLC): 20.5 µM
TGI (EKVX NSCLC): > 83.3 µM
GI50 (LOX IMVI melanoma): 13.2 µM
TGI (LOX IMVI melanoma): 27.4 µM
GI50 (HCC-2998 colon): 12.9 µM
TGI (HCC-2998 colon): 40.4 µM
GI50 (SF-539 CNS): 19.9 µM
TGI (SF-539 CNS): 46.3 µM
GI50 (HCT-116 colon): 0.0875 µM
TGI (HCT-116 colon): 10.8 µM
GI50 (SK-OV-3 ovarian): 6.7 µM
TGI (SK-OV-3 ovarian): 30.8 µM
GI50 (OVCAR-5 ovarian): 0.162 µM
TGI (OVCAR-5 ovarian): 0.636 µM
GI50 (U251 CNS): 0.966 µM
TGI (U251 CNS): 26.6 µM
GI50 (SW-620 colon): 1.04 µM
TGI (SW-620 colon): > 100 µM
GI50 (DU-145 prostate): 25.6 µM
TGI (DU-145 prostate): > 100 µM
GI50 (MDA-MB-231 breast): 18.9 µM
TGI (MDA-MB-231 breast): 61.3 µM
GI50 (HOP-92 NSCLC): 2.17 µM
TGI (HOP-92 NSCLC): 20.7 µM
GI50 (SK-MEL-28 melanoma): 16.3 µM
TGI (SK-MEL-28 melanoma): 36.6 µM
GI50 (MCF7 breast): 0.163 µM
TGI (MCF7 breast): 15.7 µM
GI50 (HCT-15 colon): 12.2 µM
TGI (HCT-15 colon): > 100 µM
GI50 (T-47D breast): 0.115 µM
TGI (T-47D breast): 0.589 µM
GI50 (SN12C renal): 14.5 µM
TGI (SN12C renal): 39.3 µM
GI50 (NCI-H460 lung): 0.317 µM
TGI (NCI-H460 lung): 14.6 µM
GI50 (NCI-H522 lung): 16.6 µM
TGI (NCI-H522 lung): 46.7 µM
GI50 (PC-3 prostate): 21.7 µM
TGI (PC-3 prostate): > 81.8 µM
GI50 (OVCAR-3 ovarian): 0.636 µM
TGI (OVCAR-3 ovarian): 6.19 µM
GI50 (A498 renal): 0.0306 µM
TGI (A498 renal): 0.168 µM
GI50 (SF-268 CNS): 29.1 µM
TGI (SF-268 CNS): > 100 µM
GI50 (NCI-H226 lung): 0.0519 µM
TGI (NCI-H226 lung): 0.182 µM
GI50 (CCRF-CEM leukemia): 23.9 µM
TGI (CCRF-CEM leukemia): > 83.3 µM
GI50 (SNB-75 CNS): 13.9 µM
TGI (SNB-75 CNS): 45.6 µM
GI50 (UO-31 renal): 6.18 µM
TGI (UO-31 renal): 39.6 µM
GI50 (HS 578T breast): 22.1 µM
TGI (HS 578T breast): > 86.1 µM
